Assay results reported in ChEMBL document CHEMBL3045349, “A comparative study on the interference of two herbicides in wheat and italian ryegrass and on their antioxidant activities and detoxification rates” (J Agric Food Chem, 2011).

Assays:
Lolium multiflorum [1] = assay: Effect on photosynthetic activity in Lolium multiflorum (Italian ryegrass) shoots assessed as dark respiration rate measured by CO2 production compound administered at rate of 14 mf/flat measured 24 hr post treatment (reference value: -1.51 umol/m2/s); type: functional
Triticum aestivum [2] = assay: Effect on antioxidant enzyme system in Triticum aestivum (wheat) shoots assessed as ascorbate peroxidase activity per mg protein compound administered at rate of 14 mf/flat measured 72 hr post treatment (reference value: 17.2 nmol/s per mg protein); type: functional
Shoot [3] = assay: Drug level in Triticum aestivum (wheat) shoots compound administered at rate of 14 mf/flat measured 96 hr post treatment by HPLC; type: ADME
Triticum aestivum [4] = assay: Effect on antioxidant enzyme system in Triticum aestivum (wheat) shoots assessed as glutathione reductase activity per mg protein compound administered at rate of 14 mf/flat measured 72 hr post treatment (reference value: 1.1 nmol/s per mg protein); type: functional
Triticum aestivum [5] = assay: Effect on antioxidant enzyme system in Triticum aestivum (wheat) shoots assessed as dehydroascorbate reductase activity per mg protein compound administered at rate of 14 mf/flat measured 72 hr post treatment (reference value: 4.7 nmol/s per mg protein); type: functional
Triticum aestivum [6] = assay: Effect on antioxidant enzyme system in Triticum aestivum (wheat) shoots assessed as glutathione S-transferase activity per mg protein compound administered at rate of 14 mf/flat measured 48 hr post treatment (reference value: 2.3 nmol/s per mg protein); type: functional
Triticum aestivum [7] = assay: Effect on MDA content in Triticum aestivum (wheat) shoots compound administered at rate of 14 mf/flat measured 24 hr post treatment (reference value: 0.054 uM/L); type: functional
Lolium multiflorum [8] = assay: Increase in MDA content in Lolium multiflorum (Italian ryegrass) shoots compound administered at rate of 14 mf/flat measured 72 hr post treatment; type: functional
Triticum aestivum [9] = assay: Effect on antioxidant enzyme system in Triticum aestivum (wheat) shoots assessed as glutathione S-transferase activity per mg protein compound administered at rate of 14 mf/flat measured 24 hr post treatment (reference value: 2.7 nmol/s per mg protein); type: functional
Lolium multiflorum [10] = assay: Effect on MDA content in Lolium multiflorum (Italian ryegrass) shoots compound administered at rate of 14 mf/flat measured 24 hr post treatment (reference value: 0.68 uM/L); type: functional
Shoot [11] = assay: Drug level in Lolium multiflorum (Italian ryegrass) shoots compound administered at rate of 14 mf/flat measured 24 hr post treatment by HPLC; type: ADME
Shoot [12] = assay: Drug level in Lolium multiflorum (Italian ryegrass) shoots compound administered at rate of 14 mf/flat measured 48 hr post treatment by HPLC; type: ADME
Shoot [13] = assay: Drug level in Triticum aestivum (wheat) shoots compound administered at rate of 14 mf/flat measured 48 hr post treatment by HPLC; type: ADME
Lolium multiflorum [14] = assay: Effect on antioxidant enzyme system in Lolium multiflorum (Italian ryegrass) shoots assessed as ascorbate peroxidase activity per mg protein compound administered at rate of 14 mf/flat measured 24 hr post treatment (reference value: 12.5 nmol/s per mg protein); type: functional
Lolium multiflorum [15] = assay: Effect on antioxidant enzyme system in Lolium multiflorum (Italian ryegrass) shoots assessed as glutathione reductase activity per mg protein compound administered at rate of 14 mf/flat measured 48 hr post treatment (reference value: 1.1 nmol/s per mg protein); type: functional
Lolium multiflorum [16] = assay: Increase in glutathione S-transferase activity in Lolium multiflorum (Italian ryegrass) compound administered at rate of 14 mf/flat measured 48 hr post treatment; type: functional
Lolium multiflorum [17] = assay: Effect on antioxidant enzyme system in Lolium multiflorum (Italian ryegrass) shoots assessed as dehydroascorbate reductase activity per mg protein compound administered at rate of 14 mf/flat measured 48 hr post treatment (reference value: 3.7 nmol/s per mg protein); type: functional
Shoot [18] = assay: Drug level in Lolium multiflorum (Italian ryegrass) shoots compound administered at rate of 14 mf/flat measured 72 hr post treatment by HPLC; type: ADME
Lolium multiflorum [19] = assay: Increase in glutathione S-transferase activity in Lolium multiflorum (Italian ryegrass) compound administered at rate of 14 mf/flat measured 72 hr post treatment; type: functional
Shoot [20] = assay: Drug level in Lolium multiflorum (Italian ryegrass) shoots compound administered at rate of 14 mf/flat measured 144 hr post treatment by HPLC; type: ADME
Lolium multiflorum [21] = assay: Effect on antioxidant enzyme system in Lolium multiflorum (Italian ryegrass) shoots assessed as glutathione S-transferase activity per mg protein compound administered at rate of 14 mf/flat measured 24 hr post treatment (reference value: 0.34 nmol/s per mg protein); type: functional
Lolium multiflorum [22] = assay: Increase in antioxidant enzyme system in Lolium multiflorum (Italian ryegrass) shoots shoots assessed as increase in glutathione reductase activity compound administered at rate of 14 mf/flat measured 24 hr post treatment; type: functional
Lolium multiflorum [23] = assay: Effect on antioxidant enzyme system in Lolium multiflorum (Italian ryegrass) shoots assessed as ascorbate peroxidase activity per mg protein compound administered at rate of 14 mf/flat measured 48 hr post treatment (reference value: 11.3 nmol/s per mg protein); type: functional
Triticum aestivum [24] = assay: Effect on antioxidant enzyme system in Triticum aestivum (wheat) shoots assessed as catalase activity per mg protein compound administered at rate of 14 mf/flat measured 24 hr post treatment (reference value: 0.1 nmol/s per mg protein); type: functional
Lolium multiflorum [25] = assay: Effect on photosynthetic activity in Lolium multiflorum (Italian ryegrass) shoots assessed as dark respiration rate measured by CO2 production compound administered at rate of 14 mf/flat measured 48 hr post treatment (reference value: -1.68 umol/m2/s); type: functional
Lolium multiflorum [26] = assay: Increase in MDA content in Lolium multiflorum (Italian ryegrass) shoots compound administered at rate of 14 mf/flat measured 48 hr post treatment; type: functional
Triticum aestivum [27] = assay: Increase in antioxidant enzyme system in Triticum aestivum (wheat) shoots assessed as increase in glutathione reductase activity compound administered at rate of 14 mf/flat measured 24 hr post treatment; type: functional
Shoot [28] = assay: Drug level in Lolium multiflorum (Italian ryegrass) shoots compound administered at rate of 14 mf/flat measured 96 hr post treatment by HPLC; type: ADME
Triticum aestivum [29] = assay: Increase in antioxidant enzyme system in Triticum aestivum (wheat) shoots assessed as increase in ascorbate peroxidase activity compound administered at rate of 14 mf/flat measured 48 hr post treatment; type: functional
Lolium multiflorum [30] = assay: Effect on antioxidant enzyme system in Lolium multiflorum (Italian ryegrass) shoots assessed as glutathione S-transferase activity per mg protein compound administered at rate of 14 mf/flat measured 48 hr post treatment (reference value: 0.35 nmol/s per mg protein); type: functional
Triticum aestivum [31] = assay: Increase in antioxidant enzyme system in Triticum aestivum (wheat) shoots assessed as increase in ascorbate peroxidase activity compound administered at rate of 14 mf/flat measured 24 hr post treatment; type: functional
Lolium multiflorum [32] = assay: Increase in antioxidant enzyme system in Lolium multiflorum (Italian ryegrass) shoots assessed as increase in ascorbate peroxidase activity compound administered at rate of 14 mf/flat measured 24 hr post treatment; type: functional
Triticum aestivum [33] = assay: Effect on antioxidant enzyme system in Triticum aestivum (wheat) shoots assessed as glutathione S-transferase activity per mg protein compound administered at rate of 14 mf/flat measured […] post treatment (reference value: 2.4 nmol/s per mg protein); type: functional

SMILES | Activity (Lolium multiflorum [1]) [micromol/m2/s] | Activity (Triticum aestivum [2]) [nmol/s/mg protein] | Drug uptake (Shoot [3]) [ppm] | Activity (Triticum aestivum [4]) [nmol/s/mg protein] | Activity (Triticum aestivum [5]) [nmol/s/mg protein] | Activity (Triticum aestivum [6]) [nmol/s/mg protein] | Activity (Triticum aestivum [7]) [µM] | Activity (Lolium multiflorum [8]) [%] | Activity (Triticum aestivum [9]) [nmol/s/mg protein] | Activity (Lolium multiflorum [10]) [µM] | Drug uptake (Shoot [11]) [ppm] | Drug uptake (Shoot [12]) [ppm] | Drug uptake (Shoot [13]) [ppm] | Activity (Lolium multiflorum [14]) [nmol/s/mg protein] | Activity (Lolium multiflorum [15]) [nmol/s/mg protein] | Activity (Lolium multiflorum [16]) [%] | Activity (Lolium multiflorum [17]) [nmol/s/mg protein] | Drug uptake (Shoot [18]) [ppm] | Activity (Lolium multiflorum [19]) [%] | Drug uptake (Shoot [20]) [ppm] | also measured
O=[N+]([O-])c1ccc(Oc2ccc(C(F)(F)F)cc2[N+](=O)[O-])cc1 [FLUORODIFEN] | -1.42 | 17.2 | 0.08 | 1 | 6.8 | 2.2 | 0.05 | 10 | 2.3 | 0.64 | 1.4 | 1.17 | 0.27 | 13.9 | 1 | 371 | 3.7 | 0.46 | 35 | 0.2 | Activity (Lolium multiflorum [21]): 0.67 nmol/s/mg protein; Activity (Lolium multiflorum [22]): 72%; Activity (Lolium multiflorum [23]): 15.3 nmol/s/mg protein; Activity (Triticum aestivum [24]): 0.11 nmol/s/mg protein; Activity (Lolium multiflorum [25]): -1.36 micromol/m2/s; Activity (Lolium multiflorum [26]): 14%; Activity (Triticum aestivum [27]): 36%; Drug uptake (Shoot [28]): 0.36 ppm; Activity (Triticum aestivum [29]): 10%; Activity (Lolium multiflorum [30]): 1.65 nmol/s/mg protein; Activity (Triticum aestivum [31]): 46%; Activity (Lolium multiflorum [32]): 11%; Activity (Triticum aestivum [33]): 2.3 nmol/s/mg protein
CCNc1nc(Cl)nc(NC(C)C)n1 [ATRAZINE] | -1.32 | 18 | 1.94 | 1 | 5.7 | 1.7 | 0.55 | 10 | 1.7 | 0.85 | 6 | 5.9 | 5.67 | 15 | 1 | 103 | 3.6 | 4.52 | 24 | 3.11 | Activity (Lolium multiflorum [21]): 0.46 nmol/s/mg protein; Activity (Lolium multiflorum [22]): 27%; Activity (Lolium multiflorum [23]): 14.2 nmol/s/mg protein; Activity (Triticum aestivum [24]): 0.1 nmol/s/mg protein; Activity (Lolium multiflorum [25]): -1.56 micromol/m2/s; Activity (Lolium multiflorum [26]): 31%; Activity (Triticum aestivum [27]): 36%; Drug uptake (Shoot [28]): 4.22 ppm; Activity (Triticum aestivum [29]): 28%; Activity (Lolium multiflorum [30]): 0.71 nmol/s/mg protein; Activity (Triticum aestivum [31]): 40%; Activity (Lolium multiflorum [32]): 20%; Activity (Triticum aestivum [33]): 2.5 nmol/s/mg protein
